Data: patent US5256788A, “Moranoline derivatives and their production and the use of moranoline and its derivatives as a stabilizing agent for enzymes” (Nippon Shinyaku Co. Ltd., priority 1989, dated 1993)

Columns and labels:
β-glucosidase = assay: Stabilization of β-glucosidase by moranoline and N-methylmoranoline; type: biochemical; conditions: 6 mg/ml of the hydrochloride, kept at 60° C.
Procedure: Test samples were (1) 1 ml of 0.2M buffer solution of β-glucosidase (300 μg/ml) alone, (2) 1 ml of 0.2M buffer solution of β-glucosidase (300 μg/ml) supplemented with 6 mg/ml of moranoline hydrochloride and, (3) 1 ml of 0.2M buffer solution of β-glucosidase (300 μg/ml) supplemented with 6 mg/ml of N-methylmoranoline hydrochloride. These test samples were kept at 60° C. and the residual enzyme activity was measured with passage of time.
For determination of the enzyme activity, there was used a method measuring absorbancy at 400 nm using […] as a substrate.
That is, 200 μl of 0.014M p-nitrophenyl-β-D-glucoside, 200 μl of the enzyme solution taken from each sample for sampling with passage of time which was appropriately diluted, and 600 μl of 0.2M acetate buffer solution (pH 4.5) were reacted at 30° C. for 15 minutes. After 2 ml of 0.1M disodium carbonate was added thereto to terminate the reaction, a color was formed and the color was measured at 400 nm. When absorbancy at the initiation of the reaction was made 100, relative absorbancy in each time was defined to be residual activity.

β-amylase = β-amylase (Glycine max, UniProt P10538); assay: Stabilization of β-amylase by moranoline; type: biochemical, soybean; conditions: 6000 μg/ml, incubated at 65° C., pH 4.8
β-amylase, sequence (P10538 whole entry): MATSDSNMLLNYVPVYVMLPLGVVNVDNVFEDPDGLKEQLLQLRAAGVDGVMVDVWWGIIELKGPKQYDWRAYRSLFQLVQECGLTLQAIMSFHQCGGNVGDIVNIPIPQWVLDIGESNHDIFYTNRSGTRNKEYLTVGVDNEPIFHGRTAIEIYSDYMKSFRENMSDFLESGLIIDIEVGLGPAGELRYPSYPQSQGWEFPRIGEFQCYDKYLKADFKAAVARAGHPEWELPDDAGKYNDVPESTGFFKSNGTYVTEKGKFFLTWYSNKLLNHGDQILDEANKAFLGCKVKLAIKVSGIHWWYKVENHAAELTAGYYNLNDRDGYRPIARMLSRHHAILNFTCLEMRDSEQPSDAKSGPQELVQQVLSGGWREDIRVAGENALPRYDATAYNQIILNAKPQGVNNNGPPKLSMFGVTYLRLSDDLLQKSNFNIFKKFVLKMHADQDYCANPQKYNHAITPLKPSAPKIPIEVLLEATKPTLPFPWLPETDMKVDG
Procedure: For control, a sample added with no moranoline was used.
The activity of β-amylase was determined by the 3,5-dinitrosalicylic acid method of Example 37.

glucoamylase = target: T1, glucoamylase (Rhizopus arrhizus, UniProt P07683); assay: Stabilization of GA (aqueous solution) by moranoline, N-methylmoranoline; type: biochemical, Rhizopus niveus
T1 construct: maltose substrate
T1 sequence (P07683 26-604): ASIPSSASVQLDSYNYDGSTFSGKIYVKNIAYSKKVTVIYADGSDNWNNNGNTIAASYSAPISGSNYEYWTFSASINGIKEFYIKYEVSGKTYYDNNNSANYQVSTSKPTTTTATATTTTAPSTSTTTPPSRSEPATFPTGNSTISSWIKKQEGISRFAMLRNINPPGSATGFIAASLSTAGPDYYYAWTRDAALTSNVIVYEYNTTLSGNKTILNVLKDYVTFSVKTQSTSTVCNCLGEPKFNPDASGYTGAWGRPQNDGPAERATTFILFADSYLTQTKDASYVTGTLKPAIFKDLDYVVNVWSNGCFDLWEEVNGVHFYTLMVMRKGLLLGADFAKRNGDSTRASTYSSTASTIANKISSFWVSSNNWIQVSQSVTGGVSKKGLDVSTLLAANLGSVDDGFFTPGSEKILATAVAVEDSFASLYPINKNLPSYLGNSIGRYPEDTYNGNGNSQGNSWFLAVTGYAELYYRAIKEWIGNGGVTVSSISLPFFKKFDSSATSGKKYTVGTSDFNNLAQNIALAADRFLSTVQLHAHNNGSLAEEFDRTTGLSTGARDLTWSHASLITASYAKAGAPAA
Procedure: As the enzyme, Rhizopus niveus-derived reagent glucoamylase manufactured by Seikagaku Kogyo Co., Ltd. was used.
After 5 mg of the enzyme was dissolved in 1 ml of 0.1M acetate buffer solution (pH 5.0), moranoline and N-methylmoranoline were dissolved in the solution in a concentration of 6000 μg/ml. The solution was charged in a test tube with a screw stopper followed by incubation at 50° C. Each enzyme solution was diluted with 0.1M acetate buffer solution (pH 5.0) to 100-fold and 100 μl of the dilution was taken. After 400 μl of 5% maltose solution (0.05M acetate buffer solution, pH 4.6) was added thereto, the mixture was reacted at 40° C. for 20 minutes. […] Thereafter, the system was ice cooled and absorbency was measured at 500 nm to determine the glucose amount. […] When the initial enzyme activity (amount of glucose produced) was made […], relative enzyme activity was determined. […]
After 5 mg of the enzyme was dissolved in 1 ml of 0.1M acetate buffer solution (pH 5.0), moranoline and N-methylmoranoline were dissolved in the solution in a concentration of 6000 μg/ml. […] Thereafter, the system was ice cooled and absorbancy was measured at 500 nm to determine the glucose amount. […] When the initial enzyme activity (amount of glucose produced) was made 100, relative enzyme activity was determined. […]

OC[C@H]1NC[C@H](O)[C@@H](O)[C@@H]1O [moranoline]
stabilizing effect (residual activity, FIG. 4) (β-glucosidase): stabilizing effect
stabilizing action (residual activity, FIG. 6) (β-amylase): stabilizing action
inhibition of the enzyme activity of glucoamylase (glucoamylase): inhibit the enzyme activity of glucoamylase
